{"source": "PubChem BioAssay AID1963847", "about": "(Molecular Pharmacology Branch, DTP, NCI, 2024);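 also: spheroids exposed to compounds for one week before readout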;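 as to viability, T/C: luminescence used as stand-in measure of viable cells; 100% = DMSO vehicle control viability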", "tested_on": "415267-285-R-J2-PDC complex spheroid viability", "assay": "Anticancer human tumor 415267-285-R-J2-PDC patient-derived breast carcinoma cell line growth inhibition [POLQ]", "settings": "for IC50: curve of first compound; for viability, T/C: stronger effect = lower value", "outline": "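Complex spheroid viability model combining PDC tumour cells with endothelial (HUVEC) and MSC stromal cells. Novobiocin, ART-558 or RP6685 were tested singly and in combination with standard and investigational anticancer drugs. Each was titrated in half-log steps from near clinical Cmax, or from 10 microM where Cmax was unknown.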", "data": [{"smiles": "COc1cc2cc(C(=O)CCC(=O)O)sc2cc1OC", "note": "+ COC1C(OC(N)=O)C(O)C(Oc2ccc3c(O)c(NC(=O)c4ccc(O)c(CC=C(C)C)c4)c(=O)oc3c2C)OC1(C)C", "values": [{"measurement": "IC50", "setting": "second compound 0.0316 µM", "result": "> 10", "unit": "µM"}, {"measurement": "IC50", "setting": "second compound 0.1 µM", "result": "> 10", "unit": "µM"}, {"measurement": "IC50", "setting": "second compound 0.316 µM", "result": "> 10", "unit": "µM"}, {"measurement": "IC50", "setting": "second compound 1 µM", "result": "> 10", "unit": "µM"}, {"measurement": "IC50", "setting": "second compound 3.16 µM", "result": "> 10", "unit": "µM"}, {"measurement": "IC50", "setting": "second compound 10 µM", "result": "> 10", "unit": "µM"}, {"measurement": "viability, T/C", "setting": "second compound 0.0316 µM, first compound 0.0316 µM", "result": 99.7, "unit": "%"}, {"measurement": "viability, T/C", "setting": "second compound 0.0316 µM, first compound 0.1 µM", "result": 104, "unit": "%"}, {"measurement": "viability, T/C", "setting": "second compound 0.0316 µM, first compound 0.316 µM", "result": 101, "unit": "%"}, {"measurement": "viability, T/C", "setting": "second compound 0.0316 µM, first compound 1 µM", "result": 104, "unit": "%"}, {"measurement": "viability, T/C", "setting": "second compound 0.0316 µM, first compound 3.16 µM", "result": 103, "unit": "%"}, {"measurement": "viability, T/C", "setting": "second compound 0.0316 µM, first compound 10 µM", "result": 102, "unit": "%"}, {"measurement": "viability, T/C", "setting": "second compound 0.1 µM, first compound 0.0316 µM", "result": 102, "unit": "%"}, {"measurement": "viability, T/C", "setting": "second compound 0.1 µM, first compound 0.1 µM", "result": 106, "unit": "%"}, {"measurement": "viability, T/C", "setting": "second compound 0.1 µM, first compound 0.316 µM", "result": 97.7, "unit": "%"}, {"measurement": "viability, T/C", "setting": "second compound 0.1 µM, first compound 1 µM", "result": 107, "unit": "%"}, {"measurement": "viability, T/C", "setting": "second compound 0.1 µM, first compound 3.16 µM", "result": 102, "unit": "%"}, {"measurement": "viability, T/C", "setting": "second compound 0.1 µM, first compound 10 µM", "result": 109, "unit": "%"}, {"measurement": "viability, T/C", "setting": "second compound 0.316 µM, first compound 0.0316 µM", "result": 107, "unit": "%"}, {"measurement": "viability, T/C", "setting": "second compound 0.316 µM, first compound 0.1 µM", "result": 97.3, "unit": "%"}, {"measurement": "viability, T/C", "setting": "second compound 0.316 µM, first compound 0.316 µM", "result": 101, "unit": "%"}, {"measurement": "viability, T/C", "setting": "second compound 0.316 µM, first compound 1 µM", "result": 98.6, "unit": "%"}, {"measurement": "viability, T/C", "setting": "second compound 0.316 µM, first compound 3.16 µM", "result": 117, "unit": "%"}, {"measurement": "viability, T/C", "setting": "second compound 0.316 µM, first compound 10 µM", "result": 105, "unit": "%"}, {"measurement": "viability, T/C", "setting": "second compound 1 µM, first compound 0.0316 µM", "result": 98.7, "unit": "%"}, {"measurement": "viability, T/C", "setting": "second compound 1 µM, first compound 0.1 µM", "result": 111, "unit": "%"}, {"measurement": "viability, T/C", "setting": "second compound 1 µM, first compound 0.316 µM", "result": 109, "unit": "%"}, {"measurement": "viability, T/C", "setting": "second compound 1 µM, first compound 1 µM", "result": 107, "unit": "%"}, {"measurement": "viability, T/C", "setting": "second compound 1 µM, first compound 3.16 µM", "result": 104, "unit": "%"}, {"measurement": "viability, T/C", "setting": "second compound 1 µM, first compound 10 µM", "result": 106, "unit": "%"}, {"measurement": "viability, T/C", "setting": "second compound 3.16 µM, first compound 0.0316 µM", "result": 96.1, "unit": "%"}, {"measurement": "viability, T/C", "setting": "second compound 3.16 µM, first compound 0.1 µM", "result": 105, "unit": "%"}, {"measurement": "viability, T/C", "setting": "second compound 3.16 µM, first compound 0.316 µM", "result": 101, "unit": "%"}, {"measurement": "viability, T/C", "setting": "second compound 3.16 µM, first compound 1 µM", "result": 113, "unit": "%"}, {"measurement": "viability, T/C", "setting": "second compound 3.16 µM, first compound 3.16 µM", "result": 96, "unit": "%"}, {"measurement": "viability, T/C", "setting": "second compound 3.16 µM, first compound 10 µM", "result": 98.1, "unit": "%"}, {"measurement": "viability, T/C", "setting": "second compound 10 µM, first compound 0.0316 µM", "result": 101, "unit": "%"}, {"measurement": "viability, T/C", "setting": "second compound 10 µM, first compound 0.1 µM", "result": 109, "unit": "%"}, {"measurement": "viability, T/C", "setting": "second compound 10 µM, first compound 0.316 µM", "result": 102, "unit": "%"}, {"measurement": "viability, T/C", "setting": "second compound 10 µM, first compound 1 µM", "result": 102, "unit": "%"}, {"measurement": "viability, T/C", "setting": "second compound 10 µM, first compound 3.16 µM", "result": 96.7, "unit": "%"}, {"measurement": "viability, T/C", "setting": "second compound 10 µM, first compound 10 µM", "result": 104, "unit": "%"}]}]}
